In patent publication EP1800684A1, “Novel alkyl phospholipid derivatives and uses thereof” (Zentaris GmbH, priority 2005, dated 2007):
In brackets after ≈: the same amount, converted by molar mass. Read-outs that look alike come from different tables or passages of the source.

Assays:
[1] = test system: Trypanosoma cruzi (Tulahuan-LACZ amstigotes in PEM); assay: In vitro drug activity assay, protozoon A (amastigotes in murine peritoneal macrophages, CPRG readout); format: cell-based; conditions: infected macrophages exposed for 3 days
Method: Murine (CD1) peritoneal macrophages were harvested 24 hours after starch induction and dispensed into 96-well plates at a concentration of 4 x 10^5 mL. After 24 hours, the cells were infected with Trypanosoma cruzi Tulahuan LAC-Z amastigotes (grown and cultured according to Buckner et al., Infection and Immunity 1999, 67(1): 403-409). 24 hours later, the infected cells were exposed to the test compounds (compounds of the invention as well as known prior art compounds) for 3 days and 50 µL of 500 µM CPRG-1% Nonidet P-40 was added to each well. The plates were read after 2 to 5 hours at 570 nm (Buckner et al., Antimicrobial Agents and Chemotherapy 1996, 40(11): 2592-2597). ED50 values were calculated with Msxlfit (IDBS).
(§1) The following protozoa were assessed: • A) Trypanosoma cruzi (Tulahuan-LACZ amstigotes in PEM, Lorente SO et al., Antimicrobial agents and chemotherapy 2004, 48(8): 2937-2950; Buckner et al., Infection and Immunity 1999, 67(1): 403-409; Buckner et al., Antimicrobial Agents and Chemotherapy 1996, 40(11): 2592-2597) • B) Trypanosoma brucei rhodesiense (strain STIB900, Lorente SO et al., Antimicrobial agents and chemotherapy 2004, 48(8): 2937-2950; Habtemariam S, BMC Pharmacology 2003, 3:6) • C) Plasmodium falciparum (strain K1, Korsinczky M et al., Antimicrobial agents and chemotherapy 2000, 44(8): 2100-2108; Thaitong S and Beale GH, Trans. R. Soc. Trop. Med. Hyg. 1981, 75: 271-273; Trager W and Jensen JB, Science 1976, 193: 673-675) • D) Plasmodium falciparum (strain 3D7, Mu et al., PLoS Biology 2005, 3(10): e335)

[2] = test system: Plasmodium falciparum (strain 3D7); assay: In vitro drug susceptibility assay, protozoon D (3[H]-hypoxanthine method); format: cell-based
Method: (§2) Plasmodium falciparum strain K1 and strain 3D7 parasites were cultured according to Trager W and Jensen JB (Science 1976, 193: 673-675). In vitro drug susceptibility assays with the test compounds were carried out according to Korsinczky M et al. (Antimicrobial agents and chemotherapy 2000, 44(8): 2100-2108) and Fivelman QL et al. (Antimicrobial agents and chemotherapy 2004, 48(11): 4097-4102) using a ^3[H]-hypoxanthine radioisotope method. ED50 values were calculated with Msxlfit (IDBS).
as §1

[3] = test system: Candida parapsilosis (ATCC 22019); assay: Anti-fungal susceptibility test (microdilution), fungus D; format: cell-based; conditions: ATCC22019, no visible growth after 48 hours at 35° C, read-out: MIC
Method: (§3) The antifungal activities of the test compounds (compounds of the invention and known prior art compounds) were measured according to standard microdilution methods (Cryptococcus/Aspergillus: Ghannoum et al., Journal of Clinical Microbiology 1992, 30 (11): 2881-2886; Candida: Reference method for broth dilution susceptibility testing of yeast: proposed standard, NCCLS document M27-P, National Committee for Clinical Laboratory Standards 1992, Villanova, Pa).
(§4) A serial dilution series starting from 64 µg/mL test compound per well down to 0.125 µg/mL test compound per well was applied for each test compound on each fungus. The MIC of each compound was defined as the concentration which produces no visible growth after 48 hours (Candida) and 72 hours (Cryptococcus, Aspergillus) of culture at 35° C.
(§5) The following fungi were assessed: • A) Candida albicans (ATCC 10231) • B) Candida albicans (ATCC 90028) • C) Candida albicans (strain TS3, Shrikantha et al., Journal of Bacteriology 2000, 182(6):1580-1591) • D) Candida parapsilosis (ATCC 22019) • E) Cryptocoocus neoformans (ATCC 90112) • F) Cryptocoocus neoformans (strain H99; Ganendren et al., Antimicrobial Agents and Chemotherapy, 2004, 48(5):1561-1569) • G) Cryptocoocus gattii (ATCC 32608) • H) Aspergillus fumigatus (ATCC 204305) • I) Aspergillus fumigatus (strain 322-384)

[4] = test system: Cryptocoocus gattii (ATCC 32608); assay: Anti-fungal susceptibility test (microdilution), fungus G; format: cell-based
Method: as §3, §4, §5

[5] = test system: Cryptocoocus neoformans (ATCC 90112); assay: Anti-fungal susceptibility test (microdilution), fungus E; format: cell-based
Method: as §3, §4, §5

[6] = test system: Cryptocoocus neoformans (strain H99); assay: Anti-fungal susceptibility test (microdilution), fungus F; format: cell-based
Method: as §3, §4, §5

[7] = test system: Trypanosoma brucei rhodesiense (strain STIB900); assay: In vitro drug activity assay, protozoon B (bloodstream form trypomastigotes, Alamar Blue); format: cell-based; conditions: incubated for 72 hours
Method: Trypanosoma brucei rhodesiense STIB900 bloodstream form trypomastigotes were maintained in HMI-18 medium (Hirumi H, Hirumi K, J Parasitol. 1989, 75(6):985-989) with 15% heat-inactivated fetal calf serum at 37°C, 5% CO2, humidified atmosphere. Trypomastigotes were washed and resuspended in fresh medium at a concentration of 2 x 10^5 mL. Test compounds were given to the trypomastigotes and plates were incubated for 72 hours at 37°C, 5% CO2, humidified atmosphere. At 72 hours the plates were assessed microscopically before Alamar Blue was added (Raz et al., Acta Trop. 1997, 68: 139-147). Plates were read after 5 to 6 hours at EX/EM 530/585 nm with a filter cutoff at 550 nm. ED50 values were calculated with Msxlfit (IDBS).
as §1

[8] = test system: Candida albicans (ATCC 10231); assay: Anti-fungal susceptibility test (microdilution), fungus A; format: cell-based; conditions: Candida albicans, ATCC10231, no visible growth after 48 hours at 35° C, read-out: MIC
Method: as §3, §4, §5

[9] = test system: Aspergillus fumigatus (strain 322-384); assay: Anti-fungal susceptibility test (microdilution), fungus I; format: cell-based; conditions: Aspergillus fumigatus, no visible growth after 72 hours at 35° C, read-out: MIC
Method: as §3, §4, §5

[10] = test system: Aspergillus fumigatus (ATCC 204305); assay: Anti-fungal susceptibility test (microdilution), fungus H; format: cell-based; conditions: Aspergillus fumigatus, ATCC204305, no visible growth after 72 hours at 35° C, read-out: MIC
Method: as §3, §4, §5

[11] = test system: Plasmodium falciparum (strain K1); assay: In vitro drug susceptibility assay, protozoon C (3[H]-hypoxanthine method); format: cell-based
Method: as §2, §1

[12] = test system: Candida albicans (strain TS3); assay: Anti-fungal susceptibility test (microdilution), fungus C; format: cell-based; conditions: Candida albicans, no visible growth after 48 hours at 35° C, read-out: MIC
Method: as §3, §4, §5

[13] = test system: Candida albicans (ATCC 90028); assay: Anti-fungal susceptibility test (microdilution), fungus B; format: cell-based; conditions: Candida albicans, ATCC90028, no visible growth after 48 hours at 35° C, read-out: MIC
Method: as §3, §4, §5

[14] = test system: Leishmaniasis; conditions: clinical phase III trials, parenteral; cited from earlier work

CCCCCCCCCCCCCCCCOP(=O)([O-])OCC[N+]12CCC(CC1)CC2 [Compound 3, Phosphoric acid 2-(1-aza-bicyclo[2.2.2]oct-1-yl)-ethyl ester hexadecyl ester]
ED50 (µg/mL) [1]: 0,33 µg/mL | ED50 (µg/mL) [2]: 2,25 µg/mL | MIC [3]: 2 µg/mL (≈ 4.35 µM) | MIC ([4]; 72 h): 0.75 µg/mL (≈ 1.63 µM) | MIC ([5]; 72 h): 1.5 µg/mL (≈ 3.26 µM) | MIC ([6]; 72 h): 1 µg/mL (≈ 2.18 µM) | ED50 (µg/mL) [7]: 25,03 µg/mL | MIC [8]: 1 µg/mL (≈ 2.18 µM) | MIC [9]: 2 µg/mL (≈ 4.35 µM) | MIC [10]: 3 µg/mL (≈ 6.53 µM) | ED50 (µg/mL) [11]: 8,03 µg/mL | MIC [12]: 2 µg/mL (≈ 4.35 µM) | MIC [13]: 1 µg/mL (≈ 2.18 µM)

CCCCCCCCCCCCCCCCCCOP(=O)([O-])OC1CC[N+](CC)(CC)CC1 [Compound 5, Phosphoric acid 1,1-diethyl-piperidin-4-yl ester octadecyl ester]
ED50 (µg/mL) [1]: 1,43 µg/mL | ED50 (µg/mL) [2]: 16,31 µg/mL | MIC [3]: 3 µg/mL (≈ 6.13 µM) | MIC ([4]; fungus G, no visible growth after 72 hours at 35° C, read-out: MIC): 0.75 µg/mL (≈ 1.53 µM) | MIC ([5]; fungus E, no visible growth after 72 hours at 35° C, read-out: MIC): 1.5 µg/mL (≈ 3.06 µM) | MIC ([6]; fungus F, no visible growth after 72 hours at 35° C, read-out: MIC): 2 µg/mL (≈ 4.08 µM) | ED50 (µg/mL) [7]: 14,20 µg/mL | MIC [8]: 2 µg/mL (≈ 4.08 µM) | MIC [9]: 8 µg/mL (≈ 16.3 µM) | MIC [10]: 6 µg/mL (≈ 12.3 µM) | ED50 (µg/mL) [11]: 21,26 µg/mL | MIC [12]: 2 µg/mL (≈ 4.08 µM) | MIC [13]: 2 µg/mL (≈ 4.08 µM)

NC[C@@H]1O[C@H](O[C@H]2[C@@H](O)[C@H](O[C@@H]3[C@@H](O)[C@H](N)C[C@H](N)[C@H]3O[C@H]3O[C@H](CO)[C@@H](O)[C@H](O)[C@H]3N)O[C@@H]2CO)[C@H](N)[C@@H](O)[C@@H]1O [paromomycin]
efficient in % of the cases [14]: 95%
